Laboratory results: patent publication US12421253B2 (Mirati Therapeutics, Inc., priority 2020, dated 2025)

Assays:
KRas^G12R = molecular target: T1, KRas^G12R (Homo sapiens, UniProt P01116, G12R); assay: KRas binding assay (TR-FRET displacement of Cy5 labelled tracer)
T1 construct: […]; biotin (biotinylated); purchased Accelegan Inc

KRas^G12A = molecular target: T2, KRas^G12A (Homo sapiens, UniProt P01116, G12A); assay: as above
T2 construct: […]; biotin (biotinylated); purchased Accelegan Inc

KRas^G12C = KRas^G12C (Homo sapiens, UniProt P01116, G12C); assay: biochemical
KRas^G12V = molecular target: T3, KRas^G12V (Homo sapiens, UniProt P01116, G12V); assay: KRas binding assay (TR-FRET displacement of Cy5 labelled tracer)
T3 construct: […]; biotin (biotinylated); purchased Accelegan Inc

KRas^WT = molecular target: T4, KRas^WT (Homo sapiens, UniProt P01116); assay: as above
T4 construct: […]; biotin (biotinylated); purchased Accelegan Inc

KRas^G12D = molecular target: T5, KRas^G12D (Homo sapiens, UniProt P01116, G12D); assay: as above
T5 construct: […]; biotin (biotinylated); purchased Accelegan Inc

KRas^G13D = KRas^G13D (Homo sapiens, UniProt P01116, G13D); assay: biochemical
KRas^G12S = molecular target: T6, KRas^G12S (Homo sapiens, UniProt P01116, G12S); assay: KRas binding assay (TR-FRET displacement of Cy5 labelled tracer)
T6 construct: […]; biotin (biotinylated); purchased Accelegan Inc

KRas^Q61H = KRas^Q61H (Homo sapiens, UniProt P01116, Q61H); assay: biochemical
Sequence of KRas^Q61H (P01116 1-169 isoform P01116-2 Q61H): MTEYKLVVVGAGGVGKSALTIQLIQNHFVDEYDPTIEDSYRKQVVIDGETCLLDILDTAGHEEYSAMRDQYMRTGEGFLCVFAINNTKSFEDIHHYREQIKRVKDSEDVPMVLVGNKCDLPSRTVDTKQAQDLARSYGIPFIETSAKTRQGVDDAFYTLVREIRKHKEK

T3 sequence (P01116 1-169 isoform P01116-2 G12V): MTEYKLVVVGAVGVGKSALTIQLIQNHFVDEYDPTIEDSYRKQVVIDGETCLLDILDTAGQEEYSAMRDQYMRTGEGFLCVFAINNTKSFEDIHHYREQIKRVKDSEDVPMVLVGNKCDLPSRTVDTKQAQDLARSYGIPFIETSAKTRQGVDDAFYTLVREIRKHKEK
T6 sequence (P01116 1-169 isoform P01116-2 G12S): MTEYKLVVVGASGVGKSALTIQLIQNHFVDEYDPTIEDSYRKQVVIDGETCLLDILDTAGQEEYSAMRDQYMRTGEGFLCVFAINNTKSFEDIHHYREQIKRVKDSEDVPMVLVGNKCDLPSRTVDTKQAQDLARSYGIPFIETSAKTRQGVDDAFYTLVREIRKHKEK
T1 sequence (P01116 1-169 isoform P01116-2 G12R): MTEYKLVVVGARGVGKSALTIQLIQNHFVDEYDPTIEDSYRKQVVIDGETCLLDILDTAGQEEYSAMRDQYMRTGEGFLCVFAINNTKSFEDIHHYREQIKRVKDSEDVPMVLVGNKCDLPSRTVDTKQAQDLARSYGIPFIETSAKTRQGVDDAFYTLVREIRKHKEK
T4 sequence (P01116 1-169 isoform P01116-2): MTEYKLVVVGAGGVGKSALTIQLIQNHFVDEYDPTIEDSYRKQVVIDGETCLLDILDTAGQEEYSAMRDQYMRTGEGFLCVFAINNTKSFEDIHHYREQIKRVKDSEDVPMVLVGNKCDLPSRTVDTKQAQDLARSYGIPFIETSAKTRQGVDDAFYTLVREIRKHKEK
Sequence of KRas^G13D (P01116 1-169 isoform P01116-2 G13D): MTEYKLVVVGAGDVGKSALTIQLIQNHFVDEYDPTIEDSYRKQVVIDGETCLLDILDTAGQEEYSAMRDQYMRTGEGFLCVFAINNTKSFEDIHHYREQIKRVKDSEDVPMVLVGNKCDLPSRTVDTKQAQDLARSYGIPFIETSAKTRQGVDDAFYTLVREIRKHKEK
T2 sequence (P01116 1-169 isoform P01116-2 G12A): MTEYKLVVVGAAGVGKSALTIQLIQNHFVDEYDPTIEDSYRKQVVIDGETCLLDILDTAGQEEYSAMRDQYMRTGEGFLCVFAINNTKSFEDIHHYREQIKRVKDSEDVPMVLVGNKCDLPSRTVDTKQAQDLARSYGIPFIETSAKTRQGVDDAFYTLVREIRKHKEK
T5 sequence (P01116 1-169 isoform P01116-2 G12D): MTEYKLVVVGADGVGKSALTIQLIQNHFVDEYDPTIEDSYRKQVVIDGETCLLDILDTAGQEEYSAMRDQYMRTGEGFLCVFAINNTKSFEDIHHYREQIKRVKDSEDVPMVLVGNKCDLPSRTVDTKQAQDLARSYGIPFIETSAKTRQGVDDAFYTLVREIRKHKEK
Sequence of KRas^G12C (P01116 1-169 isoform P01116-2 G12C): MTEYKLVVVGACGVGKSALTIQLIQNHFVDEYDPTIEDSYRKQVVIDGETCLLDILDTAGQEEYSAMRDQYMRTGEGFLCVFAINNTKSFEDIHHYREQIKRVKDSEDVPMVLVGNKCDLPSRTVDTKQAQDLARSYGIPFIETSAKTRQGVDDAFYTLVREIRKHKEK

Row | Structure (SMILES) | IC50 (KRas^G12R) | IC50 (KRas^G12A) | IC50 (KRas^G12C) | IC50 (KRas^G12V) | IC50 (KRas^WT) | IC50 (KRas^G12D) | IC50 (KRas^G13D) | IC50 (KRas^G12S) | IC50 (KRas^Q61H)
1 | CCc1cccc2cccc(N3CCc4c(nc(OCC56CCCN5CCC6)nc4N4CCC(n5ccnn5)CC4)C3)c12 [Example 151, 4-(4-(1H-1,2,3-triazol-1-yl)piperidin-1-yl)-7-(8-ethylnaphthalen-1-yl)-2-((tetrahydro-1H-pyrrolizin-7a(5H)-yl)methoxy)-5,6,7,8-tetrahydropyrido[3,4-d]pyrimidine] | 1610 nM | 2690 nM | 3470 nM | 5410 nM | 3650 nM | 30900 nM | 2700 nM | 4720 nM | 4580 nM
2 | CCc1cccc2cccc(N3CCc4c(nc(OCC56CCCN5CCC6)nc4N4CCCC(N5CCCC5=O)C4)C3)c12 (stereo not drawn) [Example 137, 1-(1-(7-(8-ethylnaphthalen-1-yl)-2-((tetrahydro-1H-pyrrolizin-7a(5H)-yl)methoxy)-5,6,7,8-tetrahydropyrido[3,4-d]pyrimidin-4-yl)piperidin-3-yl)pyrrolidin-2-one] | 1140 nM | 948 nM | 1030 nM | 1470 nM | 1660 nM | 3240 nM | 1350 nM | 1080 nM | 1470 nM
3 | CCc1cccc2cccc(N3CCc4c(nc(OCC56CCCN5CCC6)nc4NC[C@H]4CCC(=O)N4)C3)c12 [Example 148, (R)-5-(((7-(8-ethylnaphthalen-1-yl)-2-((tetrahydro-1H-pyrrolizin-7a(5H)-yl)methoxy)-5,6,7,8-tetrahydropyrido[3,4-d]pyrimidin-4-yl)amino)methyl)pyrrolidin-2-one] | 4350 nM | 3240 nM | 3070 nM | 1350 nM | 7310 nM | 7620 nM | 7150 nM | 2900 nM | 7800 nM
4 | CCc1cccc2cccc(N3CCc4c(nc(OCC56CCCN5CCC6)nc4N4CCCC(C(C)O)C4)C3)c12 (stereo not drawn) [Example 131, 1-(1-(7-(8-ethylnaphthalen-1-yl)-2-((tetrahydro-1H-pyrrolizin-7a(5H)-yl)methoxy)-5,6,7,8-tetrahydropyrido[3,4-d]pyrimidin-4-yl)piperidin-3-yl)ethan-1-ol] | 774 nM | 1200 nM | 1070 nM | 1260 nM | 1410 nM | 2120 nM | 1360 nM | 1350 nM | 1480 nM
5 | CCc1cccc2cccc(N3CCc4c(nc(OCC56CCCN5CCC6)nc4N4CCOC5(CCSC5)C4)C3)c12 (stereo not drawn) [Example 130, 9-(7-(8-ethylnaphthalen-1-yl)-2-((tetrahydro-1H-pyrrolizin-7a(5H)-yl)methoxy)-5,6,7,8-tetrahydropyrido[3,4-d]pyrimidin-4-yl)-6-oxa-2-thia-9-azaspiro[4.5]decane] | 1230 nM | 1460 nM | 1100 nM | 1260 nM | 772 nM | 5070 nM | 1160 nM | 1300 nM | 950 nM
6 | CCc1cccc2cccc(N3CCc4c(nc(OCC56CCCN5CCC6)nc4N4CCCC(c5nc(C)c(C(=O)NC6CCC6)o5)C4)C3)c12 (stereo not drawn) [Example 140, N-cyclobutyl-2-(1-(7-(8-ethylnaphthalen-1-yl)-2-((tetrahydro-1H-pyrrolizin-7a(5H)-yl)methoxy)-5,6,7,8-tetrahydropyrido[3,4-d]pyrimidin-4-yl)piperidin-3-yl)-4-methyloxazole-5-carboxamide] | 1440 nM | 1660 nM | 1180 nM | 2380 nM | 1920 nM | 5210 nM | 1760 nM | 2000 nM | 2230 nM
7 | CCc1cccc2cccc(N3CCc4c(nc(OCC56CCCN5CCC6)nc4N4CCCC(S(=O)(=O)NC)C4)C3)c12 (stereo not drawn) [Example 125, 1-(7-(8-ethylnaphthalen-1-yl)-2-((tetrahydro-1H-pyrrolizin-7a(5H)-yl)methoxy)-5,6,7,8-tetrahydropyrido[3,4-d]pyrimidin-4-yl)-N-methylpiperidine-3-sulfonamide] | 1490 nM | 1320 nM | 1200 nM | 1410 nM | 651 nM | 1030 nM | 720 nM | 665 nM | 1050 nM
8 | CCc1cccc2cccc(N3CCc4c(nc(OCC56CCCN5CCC6)nc4NCCNc4ncccc4C#N)C3)c12 [Example 154, 2-((2-((7-(8-ethylnaphthalen-1-yl)-2-((tetrahydro-1H-pyrrolizin-7a(5H)-yl)methoxy)-5,6,7,8-tetrahydropyrido[3,4-d]pyrimidin-4-yl)amino)ethyl)amino)nicotinonitrile] | 2370 nM | 4040 nM | 1790 nM | 3070 nM | 6790 nM | 35700 nM | 8230 nM | 7120 nM | 6910 nM
9 | CCc1cccc2cccc(N3CCc4c(nc(OCC56CCCN5CCC6)nc4N4CCCC(c5nnc(CO)n5C)C4)C3)c12 (stereo not drawn) [Example 166, (5-(1-(7-(8-ethylnaphthalen-1-yl)-2-((tetrahydro-1H-pyrrolizin-7a(5H)-yl)methoxy)-5,6,7,8-tetrahydropyrido[3,4-d]pyrimidin-4-yl)piperidin-3-yl)-4-methyl-4H-1,2,4-triazol-3-yl)methanol] | 4650 nM | 5510 nM | 4150 nM | 7320 nM | 4810 nM | 9850 nM | 4800 nM | 5130 nM | 4580 nM

Stronger by IC50 (KRas^G12R), values ahead:

Row | IC50 (KRas^G12R) | IC50 (KRas^G12A) | IC50 (KRas^G12C) | IC50 (KRas^G12V) | IC50 (KRas^WT) | IC50 (KRas^G12D) | IC50 (KRas^G13D) | IC50 (KRas^G12S) | IC50 (KRas^Q61H) | Structure (SMILES)
10 | 462 nM | 1160 nM | 1110 nM | 1790 nM | 2100 nM | 3300 nM | 1670 nM | 1490 nM | 1640 nM | CCc1cccc2cccc(N3CCc4c(nc(OCC56CCCN5CCC6)nc4N4CCCC(c5c[nH]cn5)C4)C3)c12 (stereo not drawn) [Example 116, 4-(3-(1H-imidazol-4-yl)piperidin-1-yl)-7-(8-ethylnaphthalen-1-yl)-2-((tetrahydro-1H-pyrrolizin-7a(5H)-yl)methoxy)-5,6,7,8-tetrahydropyrido[3,4-d]pyrimidine]
11 | 400 nM | 487 nM | 355 nM | 546 nM | 515 nM | 1210 nM | 673 nM | 383 nM | 740 nM | CCc1cccc2cccc(N3CCc4c(nc(OCC56CCCN5CCC6)nc4N4CC(O)C(O)C(O)C4)C3)c12 (stereo not drawn) [Example 101, 1-(7-(8-ethylnaphthalen-1-yl)-2-((tetrahydro-1H-pyrrolizin-7a(5H)-yl)methoxy)-5,6,7,8-tetrahydropyrido[3,4-d]pyrimidin-4-yl)piperidine-3,4,5-triol]
12 | 399 nM | 223 nM | 274 nM | 491 nM | 140 nM | 1030 nM | 186 nM | 263 nM | 213 nM | CCc1cccc2cccc(N3CCc4c(nc(OCC56CCCN5CCC6)nc4N4CCCC(N5CCCS5(=O)=O)C4)C3)c12 (stereo not drawn) [Example 85, 2-(1-(7-(8-ethylnaphthalen-1-yl)-2-((tetrahydro-1H-pyrrolizin-7a(5H)-yl)methoxy)-5,6,7,8-tetrahydropyrido[3,4-d]pyrimidin-4-yl)piperidin-3-yl)isothiazolidine 1,1-dioxide]
13 | 364 nM | 785 nM | 427 nM | 1390 nM | 718 nM | 2580 nM | 691 nM | 791 nM | 690 nM | CCc1cccc2cccc(N3CCc4c(nc(OCC56CCCN5CCC6)nc4N4CCOC(CC(N)=O)C4)C3)c12 (stereo not drawn) [Example 103, 2-(4-(7-(8-ethylnaphthalen-1-yl)-2-((tetrahydro-1H-pyrrolizin-7a(5H)-yl)methoxy)-5,6,7,8-tetrahydropyrido[3,4-d]pyrimidin-4-yl)morpholin-2-yl)acetamide]
14 | 311 nM | 206 nM | 190 nM | 427 nM | 83 nM | 929 nM | 139 nM | 240 nM | 189 nM | CCc1cccc2cccc(N3CCc4c(nc(OCC56CCCN5CCC6)nc4N4CCCC(N5CC(C)CS5(=O)=O)C4)C3)c12 (stereo not drawn) [Example 83, 2-(1-(7-(8-ethylnaphthalen-1-yl)-2-((tetrahydro-1H-pyrrolizin-7a(5H)-yl)methoxy)-5,6,7,8-tetrahydropyrido[3,4-d]pyrimidin-4-yl)piperidin-3-yl)-4-methylisothiazolidine 1,1-dioxide]
15 | 244 nM | 793 nM | 525 nM | 1290 nM | 860 nM | 2120 nM | 699 nM | 883 nM | 757 nM | CCc1cccc2cccc(N3CCc4c(nc(OCC56CCCN5CCC6)nc4N4CCCC(n5ccc(C)n5)C4)C3)c12 (stereo not drawn) [Example 94, 7-(8-ethylnaphthalen-1-yl)-4-(3-(3-methyl-1H-pyrazol-1-yl)piperidin-1-yl)-2-((tetrahydro-1H-pyrrolizin-7a(5H)-yl)methoxy)-5,6,7,8-tetrahydropyrido[3,4-d]pyrimidine]
